Results on five compounds are retold here after paper PMC6054118, “In vivo study and thermodynamic investigation of two lanthanum complexes, La(dpp)3 and La(XT), for the treatment of bone resorption disorders” (Chemical Science, 2015).

On the set-up of data set [1]: method as in Cawthray et al. 37. The settings on record: ITC, 37 °C, ref Cawthray et al. 37; cited from earlier work. Background: In ITC the heat of successive injections is recorded.
The nature of data set [2]: isothermal titration calorimetry, binding to hydroxyapatite. The settings on record: ITC. As to the method: ITC experiments in the presence of ligand (Hdpp or XT) were carried out in either piperazine (100 mM) pH 5 or HEPES (100 mM) pH 7.4. Titrations were performed by injecting consecutive 10 μL aliquots of ligand (2.5–80 mM) or metal ion/ligand solution (2.5/10 mM for Hdpp and 81/90 mM for XT) into the ITC cell (volume = 1.4 mL) containing hydroxyapatite (0.1–1.5 mM) suspension. Hydroxylapatite suspensions were prepared by adding the required amount of hydroxyapatite to the appropriately buffered solution followed by sonication for 5 minutes. The ITC cell was stirred continuously during the titration. Control experiments (heats of dilution) were performed by titration of ligand or metal ion/ligand solution into buffer containing no hydroxyapatite. Each ITC experiment was performed in triplicate (at least). The error associated with diffusion from the syringe during baseline equilibration, the first injection was only 5 μL, and the associated small heat was not included in the data analysis.

On the set-up of data set [3]: method as in PMID 23299719, PMID 11442371. The conditions noted are these: cited from earlier work; for pM (= –log[La^3+]): calculated at pH 7.4, 100 μM ligand, 10 μM metal.
Data set [4] is described as follows: tissue and plasma distribution of lanthanum after multiple intravenous doses (ICP-MS). The format is in vivo, SD rats. The settings on record: for plasma levels after 5 days of treatment / La^3+ concentration in brain / La^3+ concentration in heart / La^3+ concentration in kidney / La^3+ concentration in spleen: IV 1 mg kg^–1 per day for 5 days; for plasma levels after 5 days of treatment: mean ± SD; for La^3+ concentration in brain / La^3+ concentration in heart / La^3+ concentration in kidney / La^3+ concentration in spleen: n = 6, mean ± SD; for plasma concentration, t=end, mean / plasma concentration, t=end, single animals: IV 1mg/kg/day, end of trial; for plasma concentration, t=end, mean: n=6, mean; for plasma concentration, t=end, single animals: value of each animal, 1 mg/kg/day. As to the method:
(§1) Lanthanide concentration for both in vivo and in vitro studies were determined by ICP-MS analysis by the method reported previously.[30] In brief, samples were dried (vacuum centrifugation) and dissolved in conc. nitric acid (Optima) and slowly heated to 105 °C over 1 h and maintained at 105 °C for 24 h. Hydrogen peroxide (approximately 2 mL) was added and samples heated at 140 °C for 24 h. Samples were evaporated to dryness at 150 °C before redissolving in 3 mL of 10% nitric acid (with 10 ppm Rh) prior to analysis by ICP-MS.
(§2) Solutions of La(dpp)3 and La(XT) (1 mg mL^–1) were prepared in 10% DMSO and stored at 4 °C. Animals were administered with a dose of 1 mg kg^–1 once daily for 5 consecutive days by intravenous injection via jugular vein port. The animals were sacrificed on the day of the 5th dose and the spleen liver, kidney lungs, heart, brain and bones were collected. Blood samples (0.5 mL) were withdrawn at pre-dose and post-dose. The blood was centrifuged for 10 min at […] at room temperature to obtain the plasma. For organ homogenization, 1 g organ was added to 2 mL normal saline. Bones were cleaned manually of all soft flesh and sectioned into knee, middle, and hip parts using a ceramic blade, and lyophilized prior to normal acid digestion.

The nature of data set [5]: hydroxyapatite binding study (batch, La^3+ depletion in supernatant by ICP-MS). The settings on record: pH 7.4, 37 °C, excess HAP. As to the method: as §1
All time points were run in triplicate. Samples containing 10 mg of hydroxyapatite (Sigma-Aldrich) were initially incubated and agitated (37 °C, 220 rpm) with 0.9 mL HEPES buffer (100 mM, pH 7.4) in 1.5 mL Eppendorfs for 24 hours. Stock solutions (1.0 mM) of La(dpp)3 and La(XT) were prepared from the premade complexes dissolved in HEPES buffer. At the outset of the experiment, 100 μL of either stock solution was added to a sample and incubated and agitated for a set time. When the time point was reached, the supernatant was carefully removed, taking care not to disturb the residual HAP, and filtered through a 22 micron frit. […] Samples containing La(dpp)3 were also analysed by UV-Vis spectroscopy to determine Hdpp concentration. […]

A short description of data set [6]: bone (femur) distribution of lanthanum after multiple doses. The settings on record: 1 mg kg^–1 per day for 5 days, ANOVA p 0.006, 0.017, 0.004 (hip, mid, knee). The format is in vivo, SD rats. As to the method:
as §1, §2

Data set [7] deals with MG-63 cells. More on the design: method as in PMID 17992287, PMID 23299719, PMID 11442371. The settings on record: earlier work of the authors, read-out: EC50 (cellular toxicity); cited from earlier work.
Data set [8] in a line: tissue distribution of lanthanum after single intravenous dose (ICP-MS). It is filed as in vivo, SD rats. The conditions noted are these: single IV dose 1 mg kg^–1, last sampling point 144 h. As to the method:
as §1
(§3) Solutions of La(dpp)3 were prepared in 10% DMSO and the stability of the complex over time (7 days) monitored by spectrophotometric methods. The solution of La(dpp)3 was administered to the animals through cannulae implanted in their jugular veins (n = 6). The animals received a dose of 1 mg kg^–1 at time 0 h and blood samples (0.25 mL were withdrawn at pre-dose, 5, 10, 15, 30 min and 1, 2, 3, 4, 6, 10, 24, 48, 72, 96 and 144 h post-dose). The animals were sacrificed following the last time point and the spleen, liver, kidney, lungs, heart and brain were collected. Lanthanide concentrations were determined by ICP-MS analysis following acid digestion of the samples. The calibration curves were linear in the range of 0.1–100 ng mL^–1 and 1–50 ng mL^–1 in the organs and plasma; respectively. The plasma pharmacokinetic parameters were derived by non-compartmental analysis of plasma concentration-time profiles using Phoenix software (Ver. 1.3).

The nature of data set [9]: plasma clearance and pharmacokinetics after single intravenous dose. The format is in vivo, SD rats. As to the method: as §1, §3
Setting [10] is: thermodynamic stability of the complex.
Setting [11] is: La^3+ in plasma, La(dpp)3 1 mg kg^–1 IV, SD rats, non-compartmental, n = 6, mean.

Values joined by “and” are separate entries in the source; they are usually repeats but may differ in a detail not shown here. Equal entries are not always repeated. Where two headings read alike, the source gives them in different places.

With `[La+3]` [Free La^3+], the “apparent K a (pH 5)” value in data set [1] is listed as 2.4 (±0.2) × 10^6 M^–1.
As to `O=C(O)CN(CC(=O)O)CP(=O)(O)CN(CC(=O)O)CC(=O)O` [H5XT, bis[[bis(carboxymethyl)amino]-methyl]phosphinate], the “apparent K a (pH 5)” value in [2] (37 °C, pH 5 (100 mM piperazine), one-site bimolecular–bimolecular model) was 1.9 (±0.4) × 10^2 M^–1. Moreover, the “K (one-site fit)” value in data set [2] (37 °C, pH 7.4 (100mM HEPES), 30.4mM H5XT into 1.1 mM HAP, Fig. S2) is recorded as 6.61E3±1.33E3.
On to `Cc1c(O)c(=O)ccn1C` [Hdpp, 3-hydroxy-1,2-dimethylpyridin-4(1H)-one], for which the “interaction of ligand alone with HAP” value in data set [2] (pH 5, absence of La^3+) is listed as “do not see any evidence of interaction”. Besides, in data set [2] (pH 7.4, absence of La^3+), the “binding of ligand alone to HAP” value was “no binding is observed”.
As for `O=C([O-])CN(CC(=O)[O-])CP(=O)(O)CN(CC(=O)[O-])CC(=O)[O-].[La+3]` [La(XT)], in [3], the “pM (= –log[La^3+])” value is 12.0. Besides, in data set [3] (setting [10]), the “log βML” value is 13.0(3). Also, in data set [4], the “plasma levels after 5 days of treatment” value amounted to 5999 ± 302 ng g^–1, the “La^3+ concentration in brain” value is 112 ± 84 ng g^–1, the “La^3+ concentration in heart” value was 768 ± 115 ng g^–1 and the “La^3+ concentration in kidney” value was 1320 ± 157 ng g^–1. For the same compound, in data set [4], the “La^3+ concentration in spleen” value was 3854 ± 827 ng g^–1; the “plasma concentration, t=end, mean” value turned out to be 5998.7 ng/g weight; the “plasma concentration, t=end, single animals” value was 5843.4 ng/g weight and 6432.4 ng/g weight and 5776.8 ng/g weight and 6337.3 ng/g weight and 5782.3 ng/g weight and 5819.9 ng/g weight. For the same compound, the “La^3+ bound to HAP” value in data set [5] (after 4 h) is recorded as “less than 20%”. Besides, the “bone distribution of lanthanum compared to La(dpp)3” value in [6] is given as “slightly greater”.
What is called EC50 is the concentration giving half of the maximal effect. For orientation: MRT means the average time that molecules of a dose stay in the body. `Cc1c([O-])c(=O)ccn1C.Cc1c([O-])c(=O)ccn1C.Cc1c([O-])c(=O)ccn1C.[La+3]` [La(dpp)3]: the “pM (= –log[La^3+])” value in [3] is 5.8. Besides, the “log βML3” value in data set [3] (setting [10]) is listed as 17.44. Also, in data set [4], the “plasma levels after 5 days of treatment” value was found to be 5517 ± 1188 ng g^–1, the “La^3+ concentration in brain” value turned out to be 101 ± 60 ng g^–1, the “La^3+ concentration in heart” value was 635 ± 178 ng g^–1 and the “La^3+ concentration in kidney” value is given as 992 ± 321 ng g^–1. For the same compound, in data set [4], the “La^3+ concentration in spleen” value was 7817 ± 3211 ng g^–1; the “plasma concentration, t=end, mean” value stood at 5517.0 ng/g weight; the “plasma concentration, t=end, single animals” value is 4971.8 ng/g weight and 4668.4 ng/g weight and 4232.8 ng/g weight and 7201.5 ng/g weight and 6740.2 ng/g weight and 5287.1 ng/g weight. Moreover, in [7], the concentration for a half-maximal effect (EC50) was greater than 100 µM. For the same compound, the “La^3+ bound to HAP” value in data set [5] (first 15 minutes) was “greater than 80%”. In [8], the “La^3+ concentration in brain” value is on record as 15 ± 12 ng g^–1, the “La^3+ concentration in heart” value amounted to 20 ± 7 ng g^–1, the “La^3+ concentration in kidney” value was found to be 108 ± 95 ng g^–1 and the “La^3+ concentration in liver” value turned out to be 741 ± 109 ng g^–1. The “La^3+ concentration in spleen” value in data set [8] turned out to be 1164 ± 350 ng g^–1. For the same compound, the “lanthanum in plasma beyond 10 h” value in data set [9] (1 mg kg^–1 IV, beyond 10 h) is “not detected”. Moreover, in [9] (1 mg kg^–1 IV, pre-dose ∼15 ng mL^–1), the “time until plasma lanthanum is back to pre-dose concentrations” value is no more than 24 h. Besides, in [9] (setting [11]), the “C 0” value is 4973 ± 557 ng mL^–1 and 4973.09 ng mL^–1; the Cl is 77 mL h^–1 kg^–1 and 77.24 mL h^–1 kg^–1; the K el is reported as 0.20 h^–1; the mean residence time (MRT) is listed as 3.46 h. In data set [9] (setting [11]), the “T 1/2” value came out at 3.61 h; the V ss was 265 mL kg^–1 and 265.41 mL kg^–1. The “plasma lanthanum level as % of C0” value in data set [9] (within 6 hours after 1 mg kg^–1 IV) is listed as “approximately 10%”.
